Assay [1] deals with hormone-sensitive mouse mammary adenocarcinoma MXT (HS-MXT). Kind of assay: In vivo antitumor activity, mouse mammary adenocarcinoma HS-MXT. The protocol:
(§1) 4.—In Vivo Antitumor Activity in Combination With a Cytotoxic Agent
(§2) The tests were carried out on models of:
hormone-sensitive mouse mammary adenocarcinoma MXT (HS-MXT),
(§3) in the presence or absence of cytotoxic agents such as cyclophosphamide, etoposide, doxorubicin or vincristine.
(§4) When the MTD value of a product was determined, its in vivo antitumor activity was characterized at doses of MTD/2, MTD/4 and MTD/8 on the model of mouse mammary adenocarcinoma HS-MXT and on the model of lymphoma P 388.
(§5) In all the examples presented below, irrespective of the model (mammary adenocarcinoma HS-MXT or lymphoma P 388), the control condition is represented by a batch of 9 mice to which is administered for 5 consecutive weeks and at a rate of 5 administrations (Monday, Tuesday, Wednesday, Thursday and Friday) per week a volume of 0.2 ml of physiological saline containing the solvent used to dissolve the various compounds of formulae (I) and (Ia) used.
The following parameters were determined in these tests:
(§6) i)—The survival rate of the mice
(§7) This survival rate was calculated in the form of a ratio T/C:
(§8) This ratio represents the average survival time of the median mouse from the batch of treated mice relative to the average survival time of the median mouse from the batch of control mice. Thus, a molecule induces a significant (P<0.05) increase in the survival of the animals when the index T/C exceeds 130%. Conversely, it has a toxic effect when this value of T/C is less than 70%.
ii)—The tumor growth [lacuna] by measuring the area of the grafted HS-MXT or P 388 tumors twice a week (Monday and Friday). This area is calculated by multiplying the values of the largest two perpendicular axes of the tumor. The value of these axes is measured using a sliding caliper.
The model of hormone-sensitive MXT (HS-MXT) mouse mammary adenocarcinoma grafted onto 4- to 6-week-old B6D2F1/JIco mice is derived from the milk ducts of the mammary gland (Watson C. et al. Cancer Res. 1977; 37: 3344-48).
Compound 1 is administered alone. The first injection of the product is carried out on the seventh day post-grafting (D7) for four consecutive weeks at a rate of 5 injections per week (Monday, Tuesday, Wednesday, Thursday and Friday) and at a dose of 20 mg/kg.
Cyclophosphamide (CPA) is administered alone. The first injection of the product is carried out on the fourteenth day post-grafting (D14) for three consecutive weeks at a rate of 3 injections per week (Monday, Wednesday and Friday) and at a dose of 10 mg/kg.
Compound 1 is co-administered with cyclophosphamide. In this case, the first injection of compound 1 is carried out on the seventh day post-grafting (D7) for four consecutive weeks at a rate of 5 injections per week (Monday, Tuesday, Wednesday, Thursday and Friday) at a dose of 20 mg/kg, and the first injection of cyclophosphamide is carried out on the fourteenth day post-grafting (D14) for three consecutive weeks at a rate of 3 injections per week (Monday, Wednesday and Friday) at a dose of 10 mg/kg.
Etoposide (ETO) is administered alone. The first injection of the product is carried out on the fourteenth day post-grafting (D14) for three consecutive weeks at a rate of 3 injections per week (Monday, Wednesday and Friday) and at a dose of 10 mg/kg.
Doxorubicin (DOX) is administered alone. The first injection of the product is carried out on the fourteenth day post-grafting (D14) for three consecutive weeks at a rate of 3 injections per week (Monday, Wednesday and Friday) and at a dose of 5 mg/kg.
Compound 1 is co-administered with etoposide.

The subject of a further assay is lymphoma P 388. In words: In vivo antitumor activity, lymphoma P 388. Further details: species or system mouse. The following applies: Table IX; subcutaneous P 388 in CDF1 mice; compound 1 or 20 40 mg/kg 5/week from D5, 5 weeks; VCR 0.63 mg/kg 3/week from D5, 3 weeks. The protocol: as §1, §2, §3, §4, §5, §6, §7, §8
4- to 6-week-old CDF1 mice are grafted with a piece of P 388 tumor (from a tumor bank maintained in the laboratory) subcutaneously into the right flank on day D0. In order to be under conditions close to clinical reality, we waited until the 5th day post-grafting (D5) before starting the treatment. The reason for this was that, after this period of time, the subcutaneous P 388 tumors are palpable.
Compound 1 is administered alone. The first injection of the product is carried out on the 5th day post-grafting (D5) at a rate of 5 injections per week (Monday, Tuesday, Wednesday, Thursday and Friday) for five consecutive weeks-and at a dose of 40 mg/kg.
Compound 20 is administered alone. […]

Structures are written as SMILES.

Regarding `COc1ccc(-c2cc3c(OC)cc(OC)cc3[nH]c2=O)cc1` [CRL8246, 5,7-Dimethoxy-3-(4-methoxyphenyl)-1,2-dihydro-2-quinolinone], the “T/C (survival)” value in assay [1] (Table IV, HS-MXT in B6D2F1/JIco mice, compound 1 20 mg/kg 5 injections/week from D7, 4 weeks, CPA 10 mg/kg 3 injections/week from D14, 3 weeks) turned out to be 100%; in assay [1] (Table V, HS-MXT in B6D2F1/JIco mice, compound 1 20 mg/kg 5/week from D7, 4 weeks, ETO 10 mg/kg or DOX 5 mg/kg 3/week from D14, 3 weeks), 95%; in the assay on lymphoma P 388, 120%. Moreover, the “Tumor area, reduction (−) or increase (+) compared with control” value in assay [1] (Table VI, HS-MXT tumors, 31st day after graft, 19 administrations of compound 1 (20 mg/kg), 8 of cyclophosphamide (10 mg/kg)) is reported as −19.5%.

As to `COc1ccc(-c2cc3c(OC)cc(OC)cc3n(CCC#N)c2=O)cc1` [CRL8247, 3-[5,7-Dimethoxy-3-(4-methoxyphenyl)-2-oxo-1,2-dihydro-1-quinolinyl]propanenitrile], the “T/C (survival)” value with lymphoma P 388 is on record as 125%.

As for `COc1ccc(-c2cc3c(OC)cc(OC)cc3n(CCc3nnn[nH]3)c2=O)cc1` [CRL8256, 1-[2-(1H-1,2,3,4-Tetrazol-5-yl)ethyl]-5,7-dimethoxy-3-(4-methoxyphenyl)-1,2-dihydro-2-quinolinone], in assay [1] (Table VII, HS-MXT, compound 21 40 mg/kg 5/week from D7, 5 weeks, ETO 10 mg/kg 3/week from D7, 3 weeks), the “T/C (survival)” value amounted to 110%.

The values above are taken from patent US6593342B1, “Pharmaceutical compositions comprising 2-quinolones” (Laboratoire L. Lafon, priority 1998, dated 2003).
